Source: patent US8168667B2 (Galapagos NV, priority 2006, dated 2012)
Read-outs that look alike come from different tables or passages of the source.

Target: T1, human androgen receptor (hAR) (Homo sapiens, UniProt P10275)
T1 sequence (P10275 1-920): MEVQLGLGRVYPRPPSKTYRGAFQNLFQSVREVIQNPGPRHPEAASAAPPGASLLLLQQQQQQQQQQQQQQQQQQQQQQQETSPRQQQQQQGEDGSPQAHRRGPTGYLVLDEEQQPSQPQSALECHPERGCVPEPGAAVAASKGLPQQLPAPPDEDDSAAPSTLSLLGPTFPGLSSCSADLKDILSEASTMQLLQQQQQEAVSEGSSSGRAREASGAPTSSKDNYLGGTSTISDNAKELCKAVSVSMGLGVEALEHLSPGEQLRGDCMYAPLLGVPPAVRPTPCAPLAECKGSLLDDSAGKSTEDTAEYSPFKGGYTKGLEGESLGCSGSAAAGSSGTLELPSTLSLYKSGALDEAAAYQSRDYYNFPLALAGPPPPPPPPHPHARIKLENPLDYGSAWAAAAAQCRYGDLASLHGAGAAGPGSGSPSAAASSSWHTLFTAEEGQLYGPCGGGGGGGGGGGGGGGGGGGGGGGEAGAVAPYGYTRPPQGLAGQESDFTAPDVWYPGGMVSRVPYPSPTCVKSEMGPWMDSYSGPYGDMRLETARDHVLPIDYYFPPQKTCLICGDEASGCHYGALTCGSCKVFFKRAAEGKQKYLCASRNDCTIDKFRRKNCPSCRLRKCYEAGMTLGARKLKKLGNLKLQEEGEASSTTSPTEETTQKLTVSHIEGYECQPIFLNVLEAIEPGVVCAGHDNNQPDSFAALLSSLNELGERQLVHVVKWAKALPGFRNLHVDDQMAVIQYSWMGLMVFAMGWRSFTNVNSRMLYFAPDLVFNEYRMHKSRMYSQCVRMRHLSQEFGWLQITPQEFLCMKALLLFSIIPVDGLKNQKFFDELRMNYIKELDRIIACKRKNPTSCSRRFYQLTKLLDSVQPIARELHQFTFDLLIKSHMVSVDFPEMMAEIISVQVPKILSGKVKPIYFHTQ
Test: Functional response test: hAR transactivation (luciferase reporter) in HALP2 cells
Assay type: cell-based
Settings: for EC50: agonism, HALP2 cells (HeLa, hAR + ARE-luciferase), 20 hours at 37° C.
Source text: This test constitutes a method of identifying pure or partial agonists which mimic the effects of natural hormones, such as DHT (dihydrotestosterone) in the present case or, on the other hand, antagonists which inhibit them.
For this transactivation test, plasmids encoding a reporter gene and the human androgen receptor (hAR) are introduced together by transfection into the HeLa cell line. The reporter plasmid contains luciferase cDNA under the control of the AREs contained in the promoter sequences of the probasin gene (3xpbAREminicoll-luciferase/pGL3-puro). The expression of the reporter gene constitutes an indication of the transcriptional activity of hAR. It also encodes a protein allowing the cells expressing it to resist a treatment with puromycin. The plasmid encoding hAR contains the cDNA of hAR under the control of the Cytomegalovirus (CMV) promoter. It also encodes a protein allowing the cells expressing it to resist a treatment with neomycin. The treatment of cells with increasing amounts of potentially agonistic compounds will increase the expression of the reporter gene. To detect antagonists, on the other hand, increasing doses of test compounds are tested in the presence of […] of DHT. The expression of the reporter gene, which is constant for each dose of DHT, decreases when the concentration of the test compounds increases.
For this test, HeLa cells were obtained from the American Type Culture Collection (Rockville, Md.) and cultivated in DMEM medium containing 4.5 g/l of glucose, supplemented with Glutamax and with nonessential amino-acids and with 10% of foetal calf serum (SVF; Dominique Dutscher).
On the day before transfection, a million cells were seeded in DMEM medium without phenol red, supplemented with Glutamax and with desteroided SVF (5%) in Petri dishes. The cells were transfected with 4 μg of the puromycin resistance plasmids pcDNA3-hAR and 3xpbAREminicoll-luciferase/pGL3 using the reagent “Lipofectamine plus” (Invitrogen), following the supplier's recommendations. The day after transfection, the cells were seeded to different cell densities (10,000 to 100,000 cellules per Petri dish). Two days after transfection, the transfected cells were selected in DMEM medium without phenol red, supplemented with Glutamax and with desteroided SVF (5%) containing 400 μg/mL of G418 (Invitrogen) and 150 ng/mL of puromycin (Sigma). The culture medium was renewed weekly until resistant clones appeared. The resistant clones were removed and amplified before being tested for their functional response. […]
The functional response test was conducted on 96-well plates. The HALP2 cells were seeded (30,000 cells per well) 24 hours before the phase of stimulation in DMEM medium containing 4.5 g/L of glucose, supplemented with Glutamax and nonessential amino-acids, and with desteroided SVF (5%).
On the day of stimulation, the seeding medium was replaced by DMEM medium without phenol red, supplemented with Glutamax and with desteroided SVF (5%). […] The cells were placed in contact with the compounds for 20 hours at 37° C.

[1] = antagonism, concentration which increases the EC50 of the DHT by a factor of 2, Schild regression, HALP2 cells

## CCOC(=O)CCN1C(=O)N(c2ccc(F)c(Cl)c2)C(=O)C1c1ccc(O)cc1 (stereo not drawn) [Example 79]
  EC50: 69.3 nM
[1]
  KSchild (nM) potency: 69.28 nM

## CN1C(=O)N(c2ccc(C#N)c(O)c2)C(=O)[C@@]1(C)c1ccc(O)cc1 [Example 156.3, (R)-4-[3,4-dimethyl-2,5-dioxo-4-(4-hydroxyphenyl)imidazolidin-1-yl]-2-hydroxybenzonitrile]
  KSchild (nM) potency: 30 nM

## CCOC(=O)CCN1C(=O)N(c2ccc(C#N)c(C(F)(F)F)c2)C(=O)C1(C)c1ccc(O)cc1 (stereo not drawn) [Example 236, 4-[2,5-dioxo-3-[2-(ethoxycarbonyl)ethyl]-4-(4-hydroxyphenyl)-4-methylimidazolidin-1-yl]-2-trifluoromethylbenzonitrile]
  KSchild (nM) potency: 15 nM

## CC1(c2ccc(O)cc2)C(=O)N(c2ccc(Cl)c(Cl)c2)C(=O)N1CC#CCO (stereo not drawn) [Example 242, 1-(3,4-dichlorophenyl)-3-(4-hydroxy-2-butynyl)-4-(4-hydroxyphenyl)-4-methylimidazolidine-2,5-dione]
  EC50: 12.3 nM
[1]
  KSchild (nM) potency: 12.25 nM

## CCOC(=O)CCN1C(=O)N(c2ccc(Cl)c(Cl)c2)C(=O)C1c1ccc(O)cc1 (stereo not drawn) [Example 15, Ethyl 3-[1-(3,4-dichlorophenyl)-4-(4-hydroxyphenyl)-2,5-dioxoimidazolidin-3-yl]propionate]
  EC50: 11.3 nM
[1]
  KSchild (nM) potency: 11.29 nM

## Cc1cc(Cl)ccc1N1C(=O)N(C)C(C)(c2ccc(O)cc2)C1=O (stereo not drawn) [Example 28, 1-(4-chloro-2-methylphenyl)-3,4-dimethyl-4-(4-hydroxyphenyl)imidazolidine-2,5-dione]
  EC50: 24.5 nM
[1]
  KSchild (nM) potency: 24.49 nM

## CN1C(=O)N(c2ccc(F)c(F)c2)C(=O)C1c1ccc(O)cc1 (stereo not drawn) [Example 46]
  EC50: 77.5 nM
[1]
  KSchild (nM) potency: 77.46 nM

## CN1C(=O)N(c2ccc(C#N)c(C(F)(F)F)c2)C(=O)C1(c1ccc(O)cc1)C(F)(F)F (stereo not drawn) [Example 179, 4-[2,5-dioxo-4-(4-hydroxyphenyl)-3-methyl-4-trifluoromethylimidazolidin-1-yl]-2-trifluoromethylbenzonitrile]
  KSchild (nM) potency: 15 nM

## CC(=O)OCC#CCN1C(=O)N(c2ccc(Cl)c(Cl)c2)C(=O)C1(C)c1ccc(O)cc1 (stereo not drawn) [Example 223, 4-[1-(3,4-dichlorophenyl)-2,5-dioxo-4-methyl-4-(4-hydroxyphenyl)imidazolidin-3-yl]-2-butynyl acetate]
  EC50: 12.3 nM
[1]
  KSchild (nM) potency: 12.25 nM

## C=CCN1C(=O)N(c2ccc(Cl)c(C(F)(F)F)c2)C(=O)C1c1ccc(O)cc1 (stereo not drawn) [Example 61]
  EC50: 34.6 nM
[1]
  KSchild (nM) potency: 34.64 nM

## CN(C)CCN1C(=O)N(c2ccc(F)c(F)c2)C(=O)C1c1ccc(O)cc1 (stereo not drawn) [Example 116]
  EC50: 2000 nM
[1]
  KSchild (nM) potency: 2000 nM

## Cc1ccc(S(=O)(=O)N2C(=O)N(c3ccc(C#N)c(C(F)(F)F)c3)C(=O)C2(C)c2ccc(O)cc2)cc1 (stereo not drawn) [Example 243.2, 4-[2,5-dioxo-4-(4-hydroxyphenyl)-4-methyl-3-[(4-methylphenyl)sulphonyl]imidazolidin-1-yl]-2-trifluoromethylbenzonitrile]
  KSchild (nM) potency: 150 nM

## CC1(c2ccc(O)cc2)C(=O)N(c2ccc(C#N)c(C(F)(F)F)c2)C(=O)N1CC#CCO (stereo not drawn) [Example 243, 4-[2,5-dioxo-3-(4-hydroxy-2-butynyl)-4-(4-hydroxyphenyl)-4-methylimidazolidinyl-1-yl]-2-trifluoromethylbenzonitrile]
  KSchild (nM) potency: 4.56 nM

## O=C1C(c2ccc(O)cc2)N(CCCCO)C(=O)N1c1ccc(Cl)c(C(F)(F)F)c1 (stereo not drawn) [Example 134]
  EC50: 122 nM
[1]
  KSchild (nM) potency: 122.47 nM

## CCOC(=O)CCN1C(=O)N(c2ccc(C#N)c(C(F)(F)F)c2)C(=O)C1c1ccc(O)cc1 (stereo not drawn) [Example 74]
  KSchild (nM) potency: 17.32 nM
